Measured values taken from patent US12258547B2, “Cell culture plate, method for preparing thereof and method for detecting a substance” (UPM-Kymmene Corporation, priority 2019, dated 2025).
Where a name gives a salt, the structure may show the parent alone.

Columns and labels:
[1] = system: BJ fibroblasts; experiment: Leakage Test 2: 3D-printed 1.5% GrowDex barriers, BJ cells outside, chemical dosed inside, WST-1; assay type: cell-based, Human; settings: 24 hrs, 450 nm
Protocol: (§1) For this purpose, we • decreased the cell number from the 40 000 cells/well that was used in Test 1, to 20 000 cells/well • increased the Amitriptyline concentrations from 10 and 20 μg/ml used in Test 1 to 100 and 200 μg/ml, and the SDS concentrations from 40 and 80 μg/ml used in Test 1 to 100 and 200 μg/ml. [By decreasing cell number and increasing chemical concentration it was aimed to increase the sensitivity of the test, and expect to obtain more (measurable/visible) impacts on cells]. • included following blanks: • 1.5% GrowDex barrier on poly-D-lysine coated wells in BJ cell culture medium and WST-1, but no cells • 1.5% GrowDex barrier in MEM, no coating, no cells • 1.5% GrowDex barrier in PBS, no coating, no cells • In addition, the number of measurements/well in the multipoint absorbance reading was increased from 81 to 225 reads/well in order to get denser coverage of the well.
(§2) 1.5% GrowDex barriers consisting of four layers, were printed on a 12-well plate. For more details on 3D-printing, see Appendix 1. After construction, the barriers were left to dry for 1 hr at room temperature, after which they were covered with MEM. The plate was sealed with parafilm and stored at 4° C. until used.
(§3) The next day after construction of the barriers, BJ fibroblasts were seeded: 400 μl BJ suspension (50 000 cells/ml) was seeded outside of the barriers (→altogether 20 000 BJ cells), and 100 μl BJ cell culture medium was pipetted inside of the barriers. The cells were let to grow for 24 hrs before exposure.
(§4) 2.0 mg/ml stocks were prepared from both Amitriptyline and SDS in BJ cell culture medium with 5% FBS. The stocks were first diluted 1:10 to obtain […] chemical dilution. And the 200 μg/ml chemical dilution was further diluted 1:2 to obtain 100 μg/ml chemical dilution. These dilutions, i.e. 200 and 100 μg/ml were used in the exposure.
(§5) The medium was removed carefully from both inside and outside of the barriers. 400 μl BJ cell culture medium with 5% FBS was pipetted outside of the barrier (where the cells had been seeded on previous day). 100 μl chemical dilution (SDS or Amitriptyline) was pipetted inside of the barriers. The exposure time was 24 hrs.
(§6) After 24 hrs chemical exposure, 10 μl WST-1 reagent was pipetted inside of the barriers, and 100 μl outside of the barriers. The plate was incubated for 30 min, 1.5 hrs and 2.0 hrs before absorbance measurement at 450 nm. The absorbance was measured using multipoint measurement with 225 reads/well.
(§7) In an attempt to quantify the cell viability after different treatments, the mean±STDEV absorbances were calculated using two rows of absorbances that were measured next to the outer edges of the wells. This area was assumed to be outside of the barrier.

[2] = as above; assay type: cell-based, Human; settings: human; for viability at 24 h, 100 μg/ml: 100 μg/ml dosed into other side of barrier; for viability at 24 h, 100 μg/ml / viability at 24 h, 200 μg/ml: read-out: Viability % of Control; for viability at 24 h, 200 μg/ml: 200 μg/ml dosed into other side of barrier
Protocol: as §1, §2, §3, §4, §5, §6, §7

[3] = system: BJ cells; experiment: Leakage Test 1: 3D-printed barriers, BJ cells outside, chemical dosed inside, WST-1 and microscopy; assay type: cell-based, Human; settings: SDS 80 and 40 μg/ml, amitriptyline 20 and 10 μg/ml dosed inside barrier, 24 hrs
Protocol: It was investigated whether the 3D-printed GrowDex barriers are suitable for their intended use, i.e. to prevent the movement of cells across the barrier but allow the passage of chemicals. In order to test this, BJ cells were seeded outside of the barrier, and chemicals (SDS and Amitriptyline hydrochloride), which are known to be toxic to BJ cells, were applied inside of the barrier. After 24 hrs incubation it was evaluated microscopically whether cells had stayed outside of the barriers and whether the chemical dosed in the middle of the barrier killed the cells outside of the barrier. For quantification of cell viability, WST-1 assay was used. WST-1 assay was selected as it was used previously successfully with manually constructed barriers.
12-Well Plates: 400 μl BJ suspension (100 000 cells/ml) was seeded outside of the barriers (→altogether 40 000 BJ cells), and 100 μl BJ cell culture medium was pipetted inside of the barriers.
24-Well Plates: 200 μl of BJ suspension (100 000 cells/ml) was seeded outside of the barriers (→altogether 20 000 BJ cells), and 50 μl BJ cell culture medium was pipetted inside of the barriers. […]
The plates were incubated for 2.5 hrs before absorbance measurement at 450 nm. The absorbance was measured using multipoint measurement with 49 reads/well in 24-well plates and 81 reads/well in 12-well plates.

[4] = system: BJ cells; experiment: Previous cytotoxicity data on BJ cells obtained without barriers; assay type: cell-based; settings: Homo sapiens, dosed without barriers
Source text: The aim was to detect dose-dependent effect by using a concentration that was expected to kill about half of the cells and a concentration two times bigger than that.

[5] = system: HepG2 cells; experiment: SDS permeability (indirect): cell viability observed microscopically inside and outside barrier circle; assay type: cell-based, Human; settings: 0.4 mg/ml SDS dosed inside circle
Protocol: Barrier permeability to chemicals was tested by visual inspection using 0.2% Trypan blue, by quantitative measurement using 1 mg/ml fluorescein solution, and by indirect method using sodium dodecyl sulfate (SDS), which is a toxic compound. SDS is a detergent that is known to be toxic to all cell types. […] Circular shaped barriers were prepared in 6-well plates, and straight wall shaped barriers in 24-well plates. SH-SY5Y cells were seeded to the 24-well plate in both sides of the barriers in their normal cell culture medium at the density of 325 000 cells/50 μl. HepG2 cells were seeded to the 6-well plate both inside the barrier circles and outside of them at the density of 107 500 cells/50 μl. Next day 0.4 mg/ml SDS stock was prepared and the cells were exposed to it: HepG2 cells growing on the […]: 400 μl of 0.4 mg/ml SDS solution was pipetted inside the circle, and 400 μl of medium without SDS […] outside of the circle. […] The cell viability was observed microscopically.

[6] = system: SH-SY5Y cells; experiment: SDS permeability (indirect): cell viability observed microscopically on both sides of barrier; assay type: cell-based, Human; settings: 0.4 mg/ml SDS dosed left
Protocol: Barrier permeability to chemicals was tested by visual inspection using 0.2% Trypan blue, by quantitative measurement using 1 mg/ml fluorescein solution, and by indirect method using sodium dodecyl sulfate (SDS), which is a toxic compound. SDS is a detergent that is known to be toxic to all cell types. […] Circular shaped barriers were prepared in 6-well plates, and straight wall shaped barriers in 24-well plates. SH-SY5Y cells were seeded to the 24-well plate in both sides of the barriers in their normal cell culture medium at the density of 325 000 cells/50 μl. HepG2 cells were seeded to the 6-well plate both inside the barrier circles and outside of them at the density of 107 500 cells/50 μl. Next day 0.4 mg/ml SDS stock was prepared and the cells were exposed to it: SH-SY5Y cells growing on the 24 well plate: 100 μl of 0.4 mg/ml SDS solution was pipetted to the left side of the barrier. 100 μl medium without SDS was pipetted to the right side of the barrier. […] The cell viability was observed microscopically.

[7] = 0.2% Trypan blue permeability through GrowDex barrier, visual inspection; assay type: physicochemical; settings: 0.2% dosed to left side
Protocol: Barriers were prepared in 6-well (circular shaped barriers) and in 24-well (straight wall shaped barriers) plates, and allowed to dry overnight. The barriers were high enough to prevent passage and mixing of the solutions over them. All passage and mixing had to occur through the barriers. Barrier permeability to chemicals was tested by visual inspection using 0.2% Trypan blue, by quantitative measurement using 1 mg/ml fluorescein solution, and by indirect method using sodium dodecyl sulfate (SDS), which is a toxic compound. 400 μl Dulbecco's PBS/well was added to the 24-well plates. The plates were incubated for 1 hour at room temperature to moisturize the GrowDex barrier. The DPBS was removed and replaced with 100 μl 0.2% Trypan blue on the left side of the barrier, and with an equal amount of DPBS on the right side of the barrier.

[8] = 100 μg/ml dosed into other side of barrier
[9] = 200 μg/ml dosed into other side of barrier

SMILES	Mean absorbance, stdev [1, 8]	Mean absorbance, stdev [1, 9]	viability at 24 h, 100 μg/ml [2]	cytotoxicity at 24 h, 100 μg/ml ([2]; 100 μg/ml exposure, across barrier, read-out: reduction in BJ viability)	viability at 24 h, 200 μg/ml [2]	cytotoxicity at 24 h, 200 μg/ml ([2]; 200 μg/ml exposure, across barrier, read-out: reduction in BJ viability)	toxicity to BJ cells across 3D-printed barrier [3]	IC50 [4]	cell viability inside the GrowDex circle (dosed side) ([5]; 24 hours)	cell viability outside of the circle ([5]; 24 hours)	HepG2 cells died outside of the circle ([5]; 48 hours)	cell viability, left side of the barrier (dosed side) ([6]; 24 hours)	cell viability, right side of the barrier ([6]; 24 hours)	cell viability, both compartments ([6]; 48 hours)	distribution of blue color ([7]; after six hours)	distribution of blue color ([7]; next day)
CN(C)CCC=C1c2ccccc2CCc2ccccc21 [Amitriptyline hydrochloride, 3-(10,11-dihydro-5H-dibenzo[a,d]cycloheptene-5-ylidene)-N,N-dimethylpropan-1-amine]	0.911 ± 0.283	0.844 ± 0.318	90%	10%	84%	16%	not toxic	12 µg/mL	–	–	–	–	–	–	–	–
CCCCCCCCCCCCOS(=O)(=O)[O-].[Na+] [SDS, Sodium Dodecyl Sulfate]	1.072 ± 0.322	1.189 ± 0.406	106%	–	118%	–	not toxic	47 µg/mL	all HepG2 cells were dead inside the GrowDex circle	also outside of the circle next to the GrowDex barrier	about 95%	all SH-SY5Y cells in the left side of the barrier were dead	cells were dead next to the barrier, but not all over the well	all cells were dead in both compartments	–	–
Cc1cc(-c2ccc(/N=N/c3c(S(=O)(=O)O)cc4cc(S(=O)(=O)O)cc(N)c4c3O)c(C)c2)ccc1/N=N/c1c(S(=O)(=O)O)cc2cc(S(=O)(=O)O)cc(N)c2c1O [Trypan Blue]	–	–	–	–	–	–	–	–	–	–	–	–	–	–	absorbed most of the blue color	evenly distributed on the both sides of the barrier
